Values quoted from earlier work in PMC8184532 (European Journal of Clinical Pharmacology, 2021).
Read-outs that look alike come from different tables or passages of the source.

What was measured:
[1] = coadministered with ritonavir; Stader et al.

- increase in amlodipine exposure (coadministered with antiviral agents for chronic hepatitis C or ritonavir-boosted indinavir, non-compartmental analyses): 2 fold
- increase in amlodipine exposure (coadministered with ritonavir-boosted indinavir, healthy volunteers): 90%
- increase in amlodipine exposure (in the presence of diltiazem, a CYP3A4 inhibitor, summary of product characteristics): 60%
- increase in amlodipine exposure [1]: 90%
Compound: CCOC(=O)C1=C(COCCN)NC(C)=C(C(=O)OC)C1c1ccccc1Cl (stereo not shown) [amlodipine]
